The text below walks through data of patent US4022791A (priority 1975, dated 1977).

Data set [1] has as its system Rats. Details: Rat Jump .5 hr (current at which the animal first jumps) / Rat Jump .5 hr, second value printed in parentheses / Rat Jump 2 hr (current at which the animal first jumps): unit not given here. To be noted: in vivo, ip.
Data set [2] deals with mice. As to conditions: mouse, in vivo, ip.
Data set [3] deals with mice. As to conditions: mouse, in vivo, ip. The source holds these as a separate data set.
Data set [4] deals with mice. Nature of the data set: animal or person. It counts as in vivo, mouse. To be noted: ip.
Data set [5] has as its system mice. Nature of the data set: Toxicity and adverse effects noted (comments), mice. The class given is in vivo, mouse. To be noted: at 32 mg./kg. An excerpt:
(§1) The tabulated test results include comments regarding toxicity and adverse effects noted with certain compounds.

The test system of data set [6] is Rats. Put plainly: Toxicity and adverse effects noted (comments), rats. The class given is in vivo, rat. To be noted: for loss of righting reflex (rats): at 100 mg./kg.
Excerpt: as §1

The nature of data set [7]: Analgesic and tranquilizing effectiveness, summary of Examples 10 and 11. It counts as in vivo.
Data set [8] can be described thus: Toxicity and adverse effects noted (comments), species not stated. As to conditions: at 100 mg./kg. It counts as in vivo.
Excerpt: as §1

For data set [9], the system named is Rats. As to conditions: rat, in vivo, ip.

As to `COc1ccc(Cl)c2c1CCC(CN1CCC(C(=O)N3CCCC3)CC1)=C2`, in the data set with Rats [1], the “Rat Jump 2 hr (current at which the animal first jumps)” value (shortened to “Rat Jump 2 hr”) came out at 1.2 and the “Rat Jump .5 hr (current at which the animal first jumps)” value was found to be 1.2. For the same molecule, in the data set with mice [2], the “Hot Plate 2 hr (percentage of mice showing analgesia)” value is listed as 0 and the “Hot Plate .5 hr (percentage of mice showing analgesia)” value is recorded as 25. For the same molecule, in the data set on mice [3], the “Tail Flick 2 hr (percentage of analgesia response)” value came to 0 and the “Tail Flick .5 hr (percentage of analgesia response)” value is listed as 25. For the same molecule, in the data set on mice [4] (mouse, in vivo), the “Tail Pinch 2 hr (percentage of mice showing analgesia)” value is recorded as 0 and the “Tail Pinch .5 hr (percentage of mice showing analgesia)” value was 0. In addition, the mice died with mice [5] is on record as 1/5.

On to `COc1ccc(Cl)c2c1CCC(CN1CCC(C(=O)N3CCCCC3)CC1)=C2`, for which, in the data set on Rats [1], the “Rat Jump 2 hr” value amounted to 1.2 and the “Rat Jump .5 hr (current at which the animal first jumps)” value amounted to 1.6. Besides, in the data set on mice [2], the “Hot Plate 2 hr (percentage of mice showing analgesia)” value is recorded as 0 and the “Hot Plate .5 hr (percentage of mice showing analgesia)” value was found to be 20. Further, in the data set on mice [3], the “Tail Flick 2 hr (percentage of analgesia response)” value was 0 and the “Tail Flick .5 hr (percentage of analgesia response)” value turned out to be 40. Besides, in the data set on mice [4] (mouse, in vivo), the “Tail Pinch 2 hr (percentage of mice showing analgesia)” value is listed as 0 and the “Tail Pinch .5 hr (percentage of mice showing analgesia)” value was 0. Moreover, in the data set on Rats [6], the “loss of righting reflex (rats)” value was 2/5.

Take `COc1ccc(Cl)c2c1CCC(CN1CCC(NC(=O)N3CCCCC3)CC1)=C2`: in the data set on Rats [1], the “Rat Jump 2 hr” value is on record as 1.2 and the “Rat Jump .5 hr (current at which the animal first jumps)” value is reported as 1.2. Moreover, in the data set on mice [2], the “Hot Plate 2 hr (percentage of mice showing analgesia)” value came to 0 and the “Hot Plate .5 hr (percentage of mice showing analgesia)” value is 0. Also, in the data set on mice [3], the “Tail Flick 2 hr (percentage of analgesia response)” value is recorded as 0 and the “Tail Flick .5 hr (percentage of analgesia response)” value is given as 0. Also, in the data set on mice [4] (mouse, in vivo), the “Tail Pinch 2 hr (percentage of mice showing analgesia)” value was determined as 0 and the “Tail Pinch .5 hr (percentage of mice showing analgesia)” value is reported as 0. For the same molecule, in the data set with Rats [6], the “loss of righting reflex (rats)” value was 1/5.

For `COc1ccc(Cl)c2c1CCC(CNCC1CC1)=C2`, in the data set on Rats [1], the “Rat Jump 2 hr” value is 1.2 and the “Rat Jump .5 hr (current at which the animal first jumps)” value is 1.2. Further, in the data set with mice [2], the “Hot Plate 2 hr (percentage of mice showing analgesia)” value is recorded as 10 and the “Hot Plate .5 hr (percentage of mice showing analgesia)” value worked out at 40. For the same molecule, in the data set with mice [3], the “Tail Flick 2 hr (percentage of analgesia response)” value was 0 and the “Tail Flick .5 hr (percentage of analgesia response)” value was 20. In the data set with mice [4] (mouse, in vivo), the “Tail Pinch 2 hr (percentage of mice showing analgesia)” value is 0 and the “Tail Pinch .5 hr (percentage of mice showing analgesia)” value is listed as 40. The rats died in the data set with Rats [6] (at 32 mg./kg.) is 1/5.

`COc1ccc(Cl)c2c1CCC(CN(C)CCN1CCCC1)=C2`: in the data set on Rats [1], the “Rat Jump 2 hr” value worked out at 1.2 and the “Rat Jump .5 hr (current at which the animal first jumps)” value was found to be 1.2. Also, in the data set on mice [2], the “Hot Plate 2 hr (percentage of mice showing analgesia)” value worked out at 0 and the “Hot Plate .5 hr (percentage of mice showing analgesia)” value was 0. Besides, in the data set with mice [3], the “Tail Flick 2 hr (percentage of analgesia response)” value is listed as 0 and the “Tail Flick .5 hr (percentage of analgesia response)” value was 0. Also, in the data set with mice [4] (mouse, in vivo), the “Tail Pinch 2 hr (percentage of mice showing analgesia)” value was determined as 0 and the “Tail Pinch .5 hr (percentage of mice showing analgesia)” value amounted to 0.

For `COc1ccc(Cl)c2c1CCC(CN1CC=C(c3ccc(Cl)cc3)CC1)=C2`, in the data set with Rats [1], the “Rat Jump 2 hr” value turned out to be 1.2 and the “Rat Jump .5 hr (current at which the animal first jumps)” value stood at 1.2. Also, in the data set on mice [2], the “Hot Plate 2 hr (percentage of mice showing analgesia)” value came to 0 and the “Hot Plate .5 hr (percentage of mice showing analgesia)” value stood at 0. Further, in the data set on mice [3], the “Tail Flick 2 hr (percentage of analgesia response)” value was 0 and the “Tail Flick .5 hr (percentage of analgesia response)” value was 0. Further, in the data set with mice [4] (mouse, in vivo), the “Tail Pinch 2 hr (percentage of mice showing analgesia)” value was found to be 0 and the “Tail Pinch .5 hr (percentage of mice showing analgesia)” value is 0.

In the case of `COc1ccc(Cl)c2c1CCC(CN1CCSC1)=C2`, in the data set with Rats [1], the “Rat Jump 2 hr” value was 1.2 and the “Rat Jump .5 hr (current at which the animal first jumps)” value turned out to be 1.2. In the data set with mice [2], the “Hot Plate 2 hr (percentage of mice showing analgesia)” value was determined as 0 and the “Hot Plate .5 hr (percentage of mice showing analgesia)” value was found to be 0. Besides, in the data set with mice [3], the “Tail Flick 2 hr (percentage of analgesia response)” value came to 0 and the “Tail Flick .5 hr (percentage of analgesia response)” value is recorded as 0. In the data set on mice [4] (mouse, in vivo), the “Tail Pinch 2 hr (percentage of mice showing analgesia)” value amounted to 0 and the “Tail Pinch .5 hr (percentage of mice showing analgesia)” value is on record as 0.

`COc1ccc(Cl)c2c1CCC(CN1CCC(OC(C)=O)(c3ccccc3)CC1)=C2` [1-(2-[8-Chloro-5-methoxy-3,4-dihydronaphthyl]methyl)-4-acetoxy-4-phenylpiperidine]: in [7], the “analgesic and tranquilizing effectiveness” value was “outstanding effectiveness”.

For the molecule `COc1ccc(Cl)c2c1CCC(CN(C)C)=C2` [N(CH3)2], in the data set with Rats [1], the “Rat Jump 2 hr” value is on record as 0.6 and the “Rat Jump .5 hr (current at which the animal first jumps)” value is 1.2. For the same molecule, in the data set on mice [2], the “Hot Plate 2 hr (percentage of mice showing analgesia)” value is on record as 0 and the “Hot Plate .5 hr (percentage of mice showing analgesia)” value is 0. Moreover, in the data set on mice [3], the “Tail Flick 2 hr (percentage of analgesia response)” value worked out at 0 and the “Tail Flick .5 hr (percentage of analgesia response)” value is given as 0. Further, in the data set with mice [4] (mouse, in vivo), the “Tail Pinch 2 hr (percentage of mice showing analgesia)” value is recorded as 0 and the “Tail Pinch .5 hr (percentage of mice showing analgesia)” value is given as 0.

As usually defined, the ED50 is the dose that gives a 50% effect, or the effect in half of the subjects. With `CCC(=O)O[C@](Cc1ccccc1)(c1ccccc1)[C@H](C)CN(C)C` [d-Propoxyphene, reference compound], in the data set on Rats [1], the “Rat Jump .5 hr (current at which the animal first jumps)” value came to 1.2. Further, in the data set on mice [2], the “Hot Plate 2 hr (percentage of mice showing analgesia)” value came out at 0 and the “Hot Plate .5 hr (percentage of mice showing analgesia)” value was 60. In the data set on mice [3], the “Tail Flick 2 hr (percentage of analgesia response)” value is listed as 20 and the “Tail Flick .5 hr (percentage of analgesia response)” value amounted to 40. In addition, the ED50 in the data set on mice [4] (Mus musculus, read-out: Tail Pinch ED50) amounted to 11.5 mg/kg. The toxicity entry in [8] was “toxic”.

Take `COc1ccc(Cl)c2c1CCC(CN1CCC(OC(C)=O)(c3ccccc3)CC1)=C2` [drawing 79]: in the data set on Rats [1], the “Rat Jump 2 hr” value is on record as over 2.2 and the “Rat Jump .5 hr (current at which the animal first jumps)” value is over 2.2. In the data set on mice [2], the “Hot Plate 2 hr (percentage of mice showing analgesia)” value worked out at 80 and the “Hot Plate .5 hr (percentage of mice showing analgesia)” value amounted to 100. Also, in the data set with mice [3], the “Tail Flick 2 hr (percentage of analgesia response)” value turned out to be 70 and the “Tail Flick .5 hr (percentage of analgesia response)” value is on record as 90. Also, in the data set on mice [4] (mouse, in vivo), the “Tail Pinch 2 hr (percentage of mice showing analgesia)” value stood at 100 and the “Tail Pinch .5 hr (percentage of mice showing analgesia)” value came to 100.

Take `COc1ccc(Cl)c2c1CCC(CN1CCCC1)=C2` [pyrrolidino, 1-(2-[3,4-Dihydro-8-chloro-5-methoxynaphthyl]methyl)pyrrolidine]: in the data set with Rats [1], the “Rat Jump 2 hr” value stood at 2.2; the “Rat Jump .5 hr (current at which the animal first jumps)” value stood at 1.2; the “Rat Jump .5 hr, second value printed in parentheses” value was 2.2. Besides, in the data set with mice [2], the “Hot Plate 2 hr (percentage of mice showing analgesia)” value was 0 and the “Hot Plate .5 hr (percentage of mice showing analgesia)” value amounted to 80. Also, in the data set with mice [3], the “Tail Flick 2 hr (percentage of analgesia response)” value was 0 and the “Tail Flick .5 hr (percentage of analgesia response)” value was 60. Further, in the data set on mice [4] (mouse, in vivo), the “Tail Pinch 2 hr (percentage of mice showing analgesia)” value worked out at 0 and the “Tail Pinch .5 hr (percentage of mice showing analgesia)” value came out at 20.

Take Codeine Sulfate [reference compound]: the “Rat Jump .5 hr (current at which the animal first jumps)” value with Rats [1] is recorded as over 2.2. Also, in the data set with mice [2], the “Hot Plate 2 hr (percentage of mice showing analgesia)” value was determined as 60 and the “Hot Plate .5 hr (percentage of mice showing analgesia)” value is 80. In the data set with mice [3], the “Tail Flick 2 hr (percentage of analgesia response)” value came out at 50 and the “Tail Flick .5 hr (percentage of analgesia response)” value came to 100. For the same molecule, the “Tail Pinch ED50” value in the data set on mice [4] (mouse, in vivo) was found to be 15.4 mg/kg. Besides, in the data set on Rats [9], the “Amphetamine Antagonism Activity (dosage approximately neutralizing the amphetamine effect)” value is over 32 mg/kg.
